Measurements: patent US20050065066A1, “Stabilised insulin compositions” (priority 2002, published 2005)
Like-named read-outs stand apart in the source and are kept apart here.

Legend:
[1] = biological target: T1, metal site of insulin R6 hexamers (Homo sapiens, UniProt P01308); assay: TZD-assay: fluorescence based displacement assay; assay type: binding
T1 construct: human insulin comprising additional amino acids, i.e. more than 51 amino acids
Protocol: The binding affinity of ligands to the metal site of insulin R6 hexamers are measured in a fluorescense based displacement assay. The fluorescence of 5-(4-dimethylaminobenzylidene)thiazolidine-2,4-dione (TZD) which is a ligand for the metal site of insulin R6 is quenched upon displacement from the metal site to the solution. Titration of a ligand to a stock solution of insulin R6 hexamers with this compound mounted in the metal site allows the binding affinity of these ligands to be determined measuring the fluorescence at 455 nm upon excitation at 410 nm.
Stock solution: 0.02 mM human insulin, 0.007 mM Zn-acetate, 40 mM phenol, 0.01 mM TZD in 50 mM tris buffer adjusted to pH=8.0 with NaOH/ClO4^−.
The ligand is dissolved in DMSO to a concentration of 5 mM and added in aliquots to the stock solution to final concentrations of 0-250 µM.
Fluorescence measurements were carried out on a Perkin Elmer Spectrofluorometer LS50B. T main absorption band was excited at 410 nm and emission was detected at 455 nm. The resolution was 10 nm and 2.5 nm for excitation and emission, respectively.
This equation is fitted to the datapoints ΔF(455 nm))=ΔFmax* [ligand]free/(KD(app)*(1+[TZD]/KTZD)+[ligand]free)) KD(app) is the apparent dissociation constant and Fmax is the fluorescence at maximal ligand concentration. The value of KTZD is measured separately to 230 nM
Two different fitting-procedures can be used. One in which both parameters, KD(app) and Fmax, are adjusted to best fit the data and a second in which the value of Fmax is fixed (Fmax=1) and only KD(app) is adjusted. The given data are from the second fitting procedure. The Solver module of Microsoft Excel can be used to generate the fits from the data points.

[2] = Chemical stability of insulin formulations by SEC (size exclusion chromatography); assay type: physicochemical; details: formulated human insulin, 3 Zn2+ per hexamer
Protocol: (§1) The chemical stability of insulin formulations of the invention was characterised by HPLC (RPC, reverse phase chromatography and SEC, size exclusion chromatography). As reference, insulin formulated without ligands of the invention but with 0.3% DMSO was also investigated and shown below: [drawing]
(§2) Storage in HPLC 1 ml vials at 45° C. (5 d), 37° C. (2 w), 30° C. (6 w), 25° C. (10 w), 15° C. (30 w) gave about the same increase of transformation products correlating to an increase in reactions constants of a factor 3-4 per 10 degree.
SEC (size exclusion chromatography) on Waters insulin HMWP column, 300×7.8 mm, eluted by 15:20:65 of acetic acid: acetonitrile: arginine 1 g/L at flow of 1 mL/min and ambient temperature.

[3] = Chemical stability of insulin formulations by RPC (reverse phase chromatography); assay type: physicochemical; details: formulated human insulin, 3 Zn2+ per hexamer
Protocol: as §1
FIG. 10. Reverse phase chromatography of formulated human insulin with 3 Zn^2+ per hexamer, 30 mM phenol, 150 mM mannitol, 3 mM phosphoric acid, sodium hydroxide to pH 7.4 and 0.3% DMSO corresponding to 3 ligands per hexamer at start (upper panel) and after storage for 2 weeks at 37° C. (lower panel): Preservatives before 20 min., “hydrophilic derivatives” (desamido-insulins) 20 min to main top insulin, “hydrophobic derivatives 1” main top to 64 min., and “hydrophobic derivatives 2” (insulin dimers) after 64 min.
as §2
RPC (reverse phase chromatography) on Waters SymmetryShield RP8 column, 150×4.6 mm and 3.5 μm, eluted by A: 0.2 M sodium sulfate+0.04 M sodium phosphate pH 7.2+10% acetonitrile and isocratically (i) or a gradient (g) of B: 70% acetonitrile [minutes/% B(i/g): 0/19, 21/24(i)(sudden change), 51/24(i), 81/39(g), 81.1/0(i), 82.3/19(i)] at flow of 0.9 mL/min and 30° C.

[4] = affinity towards the zinc site, TZD-assay, read-out: Kd(app)

T1 sequence (P01308 25-54 limits assumed): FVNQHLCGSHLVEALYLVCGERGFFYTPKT
T1 sequence (P01308 90-110 limits assumed): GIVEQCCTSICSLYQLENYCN

Structure (SMILES): c1ccc2[nH]nnc2c1 [Example 1]
- Kd [1, 4]: 3880 nM

Structure (SMILES): CCN(CC)c1ccc(/C=C2\SC(=O)NC2=O)cc1 [Example 70, 5-(4-Diethylaminobenzylidene)thiazolidine-2,4-dione]
- dimer ([2]; 5° predicted): (0.15) % formed/year
- dimer ([2]; 15° C.): 0.69 % formed/year
- dimer ([2]; 25° C.): 2.24 % formed/year
- dimer ([2]; 30° C.): 3.55 % formed/year
- dimer ([2]; 37° C.): 8.84 % formed/year
- dimer ([2]; 45° C.): 29.2 % formed/year
- hphil (hydrophilic derivatives, desamido-insulins) ([3]; 5° predicted): (0.54) % formed/year
- hphob1 (hydrophobic derivatives 1) ([3]; 5° predicted): (0.22) % formed/year
- hphob2 (hydrophobic derivatives 2, insulin dimers) ([3]; 5° predicted): (0.064) % formed/year
- hphil (hydrophilic derivatives, desamido-insulins) ([3]; 15° C.): 1.95 % formed/year
- hphob1 (hydrophobic derivatives 1) ([3]; 15° C.): 1.09 % formed/year
- hphob2 (hydrophobic derivatives 2, insulin dimers) ([3]; 15° C.): 0.42 % formed/year
- hphil (hydrophilic derivatives, desamido-insulins) ([3]; 25° C.): 6.08 % formed/year
- hphob1 (hydrophobic derivatives 1) ([3]; 25° C.): 4.99 % formed/year
- hphob2 (hydrophobic derivatives 2, insulin dimers) ([3]; 25° C.): 0.94 % formed/year
- hphil (hydrophilic derivatives, desamido-insulins) ([3]; 30° C.): 12.1 % formed/year
- hphob1 (hydrophobic derivatives 1) ([3]; 30° C.): 6.94 % formed/year
- hphob2 (hydrophobic derivatives 2, insulin dimers) ([3]; 30° C.): 3.03 % formed/year
- hphil (hydrophilic derivatives, desamido-insulins) ([3]; 37° C.): 23.7 % formed/year
- hphob1 (hydrophobic derivatives 1) ([3]; 37° C.): 14.8 % formed/year
- hphob2 (hydrophobic derivatives 2, insulin dimers) ([3]; 37° C.): 6.50 % formed/year
- hphil (hydrophilic derivatives, desamido-insulins) ([3]; 45° C.): 56.2 % formed/year
- hphob1 (hydrophobic derivatives 1) ([3]; 45° C.): 78.8 % formed/year
- hphob2 (hydrophobic derivatives 2, insulin dimers) ([3]; 45° C.): 27.0 % formed/year

Structure (SMILES): CCCCCOc1ccccc1/C=C1\SC(=O)NC1=O [Example 76, 5-(2-Pentyloxybenzylidene)thiazolidine-2,4-dione]
- Kd [1, 4]: 82 nM

Structure (SMILES): COc1cc(/C=C2\SC(=O)NC2=O)cc(I)c1O [Example 167, 5-(4-Hydroxy-3-iodo-5-methoxybenzylidene)thiazolidine-2,4-dione]
- melting point: 256 °C

Structure (SMILES): O=C1NC(=O)/C(=C/c2ccc3cc(O)ccc3c2)S1 [Example 171, 5-(6-Hydroxy-2-naphthylmethylene)thiazolidine-2,4-dione]
- melting point: 310 to 314 °C

Structure (SMILES): O=C1NC(=O)C(=Cc2c[nH]c3ccc([N+](=O)[O-])cc23)S1 [Example 199, 5-(5-Nitro-1H-indol-3-ylmethylene)thiazolidine-2,4-dione]
- melting point: 330 to 333 °C

Structure (SMILES): O=C1NC(=O)/C(=C/c2c(Cl)cccc2Cl)S1 [Example 229, 5-(2,6-Dichlorobenzylidene)thiazolidine-2,4-dione]
- melting point: 152 to 154 °C

Structure (SMILES): COc1cc(O)cc(OC)c1/C=C1\SC(=O)NC1=O [Example 234, 5-(4-Hydroxy-2,6-dimethoxybenzylidene)thiazolidine-2,4-dione]
- melting point: 331 to 333 °C

Structure (SMILES): Cc1cccc(C)c1/C=C1\SC(=O)NC1=O [Example 235, 5-(2,6-Dimethylbenzylidene)thiazolidine-2,4-dione]
- melting point: 104 to 105 °C

Structure (SMILES): COc1cccc(OC)c1/C=C1\SC(=O)NC1=O [Example 236, 5-(2,6-Dimethoxybenzylidene)thiazolidine-2,4-dione]
- melting point: 241 to 242 °C

Structure (SMILES): COc1cc(OCc2c(F)cccc2[N+](=O)[O-])cc(OC)c1C=C1SC(=O)NC1=O [Example 237, 5-[4-(2-Fluoro-6-nitrobenzyloxy)-2,6-dimethoxybenzylidene]thiazolidine-2,4-dione]
- melting point: 255 to 256 °C

Structure (SMILES): O=C1NC(=O)/C(=C/c2cc3ccccc3o2)S1 [Example 238, 5-Benzofuran-2-ylmethylenethiazolidine-2,4-dione]
- melting point: 265 to 266 °C

Structure (SMILES): CN(C)c1ccc(/C=C/C=C2\SC(=O)NC2=O)cc1 [Example 239, 5-[3-(4-Dimethylaminophenyl)allylidene]thiazolidine-2,4-dione]
- melting point: 259 to 263 °C

Structure (SMILES): CC(/C=C1\SC(=O)NC1=O)=C\c1ccccc1 [Example 240, 5-(2-Methyl-3-phenylallylidene)thiazolidine-2,4-dione]
- melting point: 203 to 210 °C

Structure (SMILES): O=C1NC(=O)/C(=C/C(Cl)=C/c2ccccc2)S1 [Example 241, 5-(2-Chloro-3-phenylallylidene)thiazolidine-2,4-dione]
- melting point: 251 to 254 °C

Structure (SMILES): O=C1NC(=O)/C(=C/c2cc3ccccc3[nH]c2=O)S1 [Example 242, 5-(2-Oxo-1,2-dihydroquinolin-3-ylmethylene)thiazolidine-2,4-dione]
- melting point: 338 to 347 °C

Structure (SMILES): O=C(O)COc1cccc(/C=C2\SC(=O)NC2=O)c1 [Example 461, [3-(2,4-Dioxothiazolidin-5-ylidenemethyl)phenoxy]acetic acid]
- dimer ([2]; 5° predicted): (0.057) % formed/year
- dimer ([2]; 15° C.): 0.33 % formed/year
- dimer ([2]; 25° C.): 1.20 % formed/year
- dimer ([2]; 30° C.): 2.34 % formed/year
- dimer ([2]; 37° C.): 6.50 % formed/year
- dimer ([2]; 45° C.): 23.4 % formed/year
- hphil (hydrophilic derivatives, desamido-insulins) ([3]; 5° predicted): (0.287) % formed/year
- hphob1 (hydrophobic derivatives 1) ([3]; 5° predicted): (0.153) % formed/year
- hphob2 (hydrophobic derivatives 2, insulin dimers) ([3]; 5° predicted): (0.044) % formed/year
- hphil (hydrophilic derivatives, desamido-insulins) ([3]; 15° C.): 1.14 % formed/year
- hphob1 (hydrophobic derivatives 1) ([3]; 15° C.): 0.67 % formed/year
- hphob2 (hydrophobic derivatives 2, insulin dimers) ([3]; 15° C.): 0.29 % formed/year
- hphil (hydrophilic derivatives, desamido-insulins) ([3]; 25° C.): 2.86 % formed/year
- hphob1 (hydrophobic derivatives 1) ([3]; 25° C.): 4.78 % formed/year
- hphob2 (hydrophobic derivatives 2, insulin dimers) ([3]; 25° C.): 0.99 % formed/year
- hphil (hydrophilic derivatives, desamido-insulins) ([3]; 30° C.): 5.12 % formed/year
- hphob1 (hydrophobic derivatives 1) ([3]; 30° C.): 7.11 % formed/year
- hphob2 (hydrophobic derivatives 2, insulin dimers) ([3]; 30° C.): 1.99 % formed/year
- hphil (hydrophilic derivatives, desamido-insulins) ([3]; 37° C.): 11.2 % formed/year
- hphob1 (hydrophobic derivatives 1) ([3]; 37° C.): 20.0 % formed/year
- hphob2 (hydrophobic derivatives 2, insulin dimers) ([3]; 37° C.): 7.02 % formed/year
- hphil (hydrophilic derivatives, desamido-insulins) ([3]; 45° C.): 29.9 % formed/year
- hphob1 (hydrophobic derivatives 1) ([3]; 45° C.): 52.6 % formed/year
- hphob2 (hydrophobic derivatives 2, insulin dimers) ([3]; 45° C.): 23.4 % formed/year

Structure (SMILES): O=C(O)COc1ccc(/C=C2\SC(=O)NC2=O)c2ccccc12 [Example 476, [4-(2,4-Dioxothiazolidin-5-ylidenemethyl)naphthalen-1-yloxy]acetic acid]
- Kd [1, 4]: 68 nM

Structure (SMILES): c1cc(COc2ccc3ccccc3c2)cc(-c2nnn[nH]2)c1 [Example 572, 5-(3-(Naphthalen-2-yloxymethyl)-phenyl)-1H-tetrazole]
- melting point: 200 to 202 °C

Structure (SMILES): Fc1ccc(Cn2c3ccccc3c3cc(-c4nn[nH]n4)ccc32)c(F)c1 [Example 759, 9-(2,4-Difluorobenzyl)-3-(2H-tetrazol-5-yl)-9H-carbazole]
- Kd [1, 4]: 23 nM

Structure (SMILES): CN(C)c1ccc(/C=C2\SC(=O)NC2=O)cc1 [TZD, 5-(4-dimethylaminobenzylidene)thiazolidine-2,4-dione, reference compound]
- Kd ([1]; measured separately, read-out: KTZD): 230 nM
